In patent publication US12383495B2, “Resident articles for gram-level dosing” (Massachusetts Institute of Technology, priority 2018, dated 2025):

Key:
[1] = pig, in vivo
[2] = In vitro drug release from drug-vinylpolysiloxane pills/articles in simulated gastric fluid; type: physicochemical; conditions: for in vitro release from drug-VPS pill: SGF, 37° C., up to 28 days
Description: Articles with a series of 30 pills were made so that there was 1 gram of doxycycline hyclate in 2 grams of vinylpolysiloxane. Pills were coated with either cellulose acetate butyrate (CAB) or with Eudragit RS PO. A control with no coatings was also made. The articles were immersed in simulated gastric fluid, and the cumulative release of doxycycline hyclate was measured for more than 26 days. […] Thickness of coatings was tuned by increasing the spray volume. […] Individual pills made of drug-VPS for doxycycline hyclate, isoniazid, ethambutol, pyrazinamide, moxifloxacin were used to evaluate long-term release kinetics in SGF. […] Drug concentrations were then analyzed using a High-Performance Liquid Chromatography (HPLC). […] An Agilent 1260 Infinity II HPLC system (Agilent Technologies, Inc.) equipped with a Model 1260 quaternary pump, Model 1260 High Performance autosampler, Model 1260 thermostat, Model 1260 Infinity Thermostatted Column Compartment control module, and Model 1260 diode array detector was utilized. Data processing and analysis was performed using OpenLab CDS ChemStation (Agilent Technologies, Inc.). All solvents used were purchased from Sigma-Aldrich Corporation. For doxycycline hyclate, chromatographic isocratic separation was carried out on an Agilent 4.6×50 mm AdvanceBio RP-mAb SB-C8 analytical column with 3.5 μm particles, maintained at 55° C. The optimized mobile phase consisted of 20 mM dipotassium phosphate buffer and acetonitrile (pH 6 adjusted with triethylamine) [60:40 (v/v)] at a flow rate of 0.85 mL/min over a 4 min run time. The injection volume was 5 μl, and the selected ultraviolet (UV) detection wavelength was 293 nm.

[3] = In vitro drug release from drug-VPS pills/devices in water; type: physicochemical; conditions: 37° C.
Description: Three intact rifampicin devices were fabricated by loading 2 grams of drug into VPS pills. The devices were incubated in 500 mL of nanopure water for up to 26 days in a shaking incubator at 37° C. and 200 rpm, with media exchange at specified time intervals. […] The drug concentrations samples were then measured on an Infinite M200Pro (Tecan) reader (absorbance, 475 nm).

For doxycycline hyclate, the absorption [1] was “absorbed rapidly”, the “duration of detectable drug in serum” value [1] was “at least 28 days” and the “duration of sustained drug release (non-zero concentrations in the blood)” value [1] was “at least 7 days”. The burst release ([2]; PEG 3350 in matrix, pills coated with Eudragit RS PO or Eudragit NM 30D) was “prevented the burst release in the first day”, the rate of release ([2]; PEG 3350 in matrix, thicker coating of Eudragit NM 30D) was “slower rate of release” and the release kinetic profile ([2]; VPS pills coated with Eudragit RS 100, SGF) was “linear kinetic profile with limited burst release”. The burst release ([2]; article of 30 pills coated with Eudragit RS PO, simulated gastric fluid, vs uncoated control) was “prevented the burst release in the first couple days”, the burst release ([2]; article of 30 pills coated with cellulose acetate butyrate (CAB), simulated gastric fluid, vs uncoated control) was “prevented the burst release in the first couple days” and the “duration of drug release (cumulative release)” value ([2]; articles of 30 pills, 1 gram drug in 2 grams vinylpolysiloxane, CAB-coated, Eudragit RS PO-coated or uncoated, simulated gastric fluid) was “more than 26 days”. The “burst release and release rate” value ([2]; multi-matrix pill (concentric layers of different drug/matrix concentration)) was “reducing the burst release and release rate”, the “burst release and release rate” value ([2]; pills coated with PDMS of different viscosities (750 cst and 25 cst)) was “blunted the burst release and slowed down the release rate” and the “effect of excipient on rate of release” value ([2]; polyethylene glycol (PEG) 3350 added to drug/siloxane matrix) was “increase the rate of release”.
For NC(=O)c1cnccn1 [pyrazinamide], the “in vitro release from drug-VPS pill” value [2] was “able to release”.
In the case of NNC(=O)c1ccncc1 [isoniazid], the “in vitro release from drug-VPS pill/device” value [3] was “able to release”.
With CO[C@H]1/C=C/O[C@@]2(C)Oc3c(C)c(O)c4c(O)c(c(/C=N/N5CCN(C)CC5)c(O)c4c3C2=O)NC(=O)/C(C)=C\C=C\[C@H](C)[C@H](O)[C@@H](C)[C@@H](O)[C@@H](C)[C@H](OC(C)=O)[C@@H]1C [rifampicin] the “duration of detectable serum concentrations” value [1] was “detectable serum concentrations for a week”.
With CC[C@@H](CO)NCCN[C@@H](CC)CO [ethambutol] the “in vitro release from drug-VPS pill” value [2] was “able to release”.
